Experimental findings from patent US10766882B2, “1,2-naphthoquinone based derivative and method of preparing the same” (YUNGJIN PHARM. CO., LTD., priority 2013, dated 2020) are described below.

The test system of one assay is C57BLKS/J db/db mice. Nature of the assay: Glucose level and glycosylated hemoglobin (Hb1Ac) in fasted diabetic mice (db/db). It is filed as in vivo. Conditions: Exp. Ex. 5, FIG. 9: 10 week-old db/db mice, 40, 80, 120 mg/kg oral, fasted for 14 hours, vs 0.1% SLS controls. As to the method:
10 week-old C57BLKS/J db/db mice having genetic obesity characteristics available from ORIENTBIO were prepared. Two mice were raised in each polycarbonate breeding cage (200 W×260 L×130H (mm), Three-shine) in which temperature was 22 to 24° C., relative humidity was 30 to 50%, illuminance was 150 to 300 lux, night and day were 12 hours, and exhaust was performed at 10 to 15 air changes per hour. As a feed, low fat diet (11.9 kcal % fat, 5053, Labdiet) manufactured by ORIENTBIO was used. The feed was contained in a feeder and free intake was allowed. As drinking water, water, which was contained in a 250 mL polycarbonate based bottle, purified through a filter and a sterilizer was used and free intake was allowed.
The compound according to Example 1 synthesized in the present invention was orally administered to three C57BLKS/J db/db mice in amounts of 40 mg/kg, 80 mg/kg, and 120 mg/kg, respectively. For administration, a disposable syringe fitted with a sonde for oral administration was used and 10 ml/kg of the compound was orally administered into the stomach. As controls, three C57BLKS/J db/db mice were administered 0.1% SLS in an amount of 120 mg/kg in the same manner as described above. After administration, the mice were fasted for 14 hours and glucose levels and glycosylated hemoglobin thereof were measured. Results are illustrated in FIG. 9 below.

A further assay concerns C57BL/6J Lep ob/ob mice. Briefly: Weight loss effects in obese mice (ob/ob). The note with it: vs 0.1% SLS controls. The assay is classed as in vivo. The gist of the method: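 Male-unspecified C57BL/6J Lep ob/ob mice (6–15 weeks old, n=3 per group) on low-fat chow received compound by daily oral gavage (40–150 mg/kg, 10 ml/kg) for 6 days to 2 weeks, with 0.1% SLS vehicle as control. Body weight was recorded daily, gain calculated from day 1 to the day before termination, and food intake measured twice weekly.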

[1] abbreviates: Exp. Ex. 3-1, FIG. 1: 10 week-old ob/ob mice, 40, 80, 120 mg/kg oral once every day, two weeks.
The mark [2] stands for this setting: Exp. Ex. 3-2, FIG. 2: 6 week-old ob/ob mice, 100 mg/kg oral.
Where [3] appears, read: Exp. Ex. 3-10, FIG. 13: 6 week-old ob/ob mice, 100 mg/kg oral, two weeks.
Where [4] appears, read: Exp. Ex. 3-11, FIG. 14: 6.5 week-old ob/ob mice, 100 mg/kg oral, one week.
Setting [5] is: Exp. Ex. 3-12, FIG. 15: 6 week-old ob/ob mice, 100 mg/kg oral, two weeks.
[6] abbreviates: Exp. Ex. 3-13, FIG. 16: 6 week-old ob/ob mice, 100 mg/kg oral, one week.

Regarding `CC(C)c1nc2c([nH]1)C(=O)C(=O)c1ccccc1-2` [Example 1, 2-isopropyl-1H-naphtho[2,1-d]imidazole-4,5-dione], the glucose level result with C57BLKS/J db/db mice was “significantly decreased”. In the assay on C57BLKS/J db/db mice, the “glycosylated hemoglobin (Hb1Ac)” value is listed as “significantly decreased”. Further, the intake amount result in the assay on C57BL/6J Lep ob/ob mice (setting [1]) was “significantly decreased”; in the assay with C57BL/6J Lep ob/ob mice (setting [2]), “significantly decreased”; with C57BL/6J Lep ob/ob mice (setting [3]), “significantly decreased in some sections”; in the assay with C57BL/6J Lep ob/ob mice (setting [4]), “significantly decreased in some sections”; in the assay with C57BL/6J Lep ob/ob mice (setting [5]), “significantly decreased in some sections”; in the assay on C57BL/6J Lep ob/ob mice (setting [6]), “significantly decreased in some sections”. Also, the weight change result is reported as “significantly decreased” in the assay on C57BL/6J Lep ob/ob mice (setting [1]); “significantly decreased” with C57BL/6J Lep ob/ob mice (setting [2]); “significantly decreased in some sections” in the assay on C57BL/6J Lep ob/ob mice (setting [3]); “significantly decreased in some sections” in the assay with C57BL/6J Lep ob/ob mice (setting [4]); “significantly decreased in some sections” with C57BL/6J Lep ob/ob mice (setting [5]); “significantly decreased in some sections” in the assay on C57BL/6J Lep ob/ob mice (setting [6]). For the same compound, the weight increase ratio entry is “significantly decreased” in the assay with C57BL/6J Lep ob/ob mice (setting [1]); “significantly decreased” with C57BL/6J Lep ob/ob mice (setting [2]); “significantly decreased in some sections” in the assay on C57BL/6J Lep ob/ob mice (setting [3]); “significantly decreased in some sections” with C57BL/6J Lep ob/ob mice (setting [4]); “significantly decreased in some sections” in the assay on C57BL/6J Lep ob/ob mice (setting [5]); “significantly decreased in some sections” in the assay on C57BL/6J Lep ob/ob mice (setting [6]).
